# Laboratory results: US20250311727A1, “SUBSTITUTED 2-AMINOAZINES AND SALTS THEREOF, AND USE THEREOF AS HERBICIDAL ACTIVE SUBSTANCES” (BAYER AKTIENGESELLSCHAFT, priority 2022, published 2025)
# Legend:
# Format in all cases: in vivo
# Stellaria media [1] = experiment: Pre-emergence herbicide efficacy at 320 g/ha, STEME; conditions: scored visually after about 3 weeks vs untreated controls, 100% = plants have died
# How it was run: (§1)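 Visual percent activity versus untreated controls, read about 3 weeks after treatment, where 100% means dead plants and 0% means control-like growth. Compound (WP or EC, 0.5% additive, 600 L/ha water) was sprayed onto the covering soil over freshly sown weed seeds in sandy loam, then kept in a greenhouse.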
# Kochia scoparia [2] = experiment: Post-emergence herbicidal efficacy at 80 g/ha, KCHSC; conditions: rated visually after about 3 weeks vs untreated controls, 100% = plants have died
# Excerpt: (§2) Unwanted plants/weeds: • ABUTH: Abutilon theophrasti • ALOMY: Alopecurus myosuroides • AMARE: Amaranthus retroflexus • DIGSA: Digitaria sanguinalis • ECHCG: Echinochloa crus-galli • KCHSC: Kochia scoparia • LOLRI: Lolium rigidum • MATIN: Matricaria inodora • POAAN: Poa annua • POLCO: Polygonum convolvulus • SETVI: Setaria viridis • STEME: Stellaria media • VERPE: Veronica persica • VIOTR: Viola tricolor A. Post-Emergence Herbicidal Efficacy at 320 g/ha
# (§3) Seeds of monocotyledonous and dicotyledonous weeds and crop plants were placed in sandy loam in plastic or organic planting pots, covered with soil and cultivated in a greenhouse under controlled growth conditions. 2 to 3 weeks after sowing, the test plants were treated at the one-leaf stage. The compounds of the invention, formulated in the form of wettable powders (WP) or as emulsion concentrates (EC), were then sprayed onto the green parts of the plants as aqueous suspension or emulsion with addition of 0.5% additive at a water application rate of 600 l/ha (converted). After the test plants had been kept in the greenhouse under optimum growth conditions for about 3 weeks, the activity of the preparations was rated visually in comparison to untreated controls. For example, 100% activity=the plants have died, 0% activity=like control plants.
# (§4) Tables B1 to B11 below show the effects of selected compounds of the general formula (I) according to Table 1 on various harmful plants and an application rate corresponding to 80 g/ha, which were obtained by the experimental procedure mentioned above.
# Amaranthus retroflexus [3] = experiment: Post-emergence herbicidal efficacy at 80 g/ha, AMARE; conditions: rated visually after about 3 weeks vs untreated controls, 100% = plants have died
# Excerpt: as §2, §3, §4
# Kochia scoparia [4] = experiment: Pre-emergence herbicide efficacy at 320 g/ha, KCHSC; conditions: scored visually after about 3 weeks vs untreated controls, 100% = plants have died
# How it was run: as §1
# Kochia scoparia [5] = experiment: Post-emergence herbicidal efficacy at 320 g/ha, KCHSC; conditions: rated visually after about 3 weeks vs untreated controls, 100% = plants have died
# How it was run: (§5)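 Weeds grown in sandy loam in a greenhouse, both monocot and dicot species, and sprayed post-emergence at the one-leaf stage, 2–3 weeks after sowing. Spray was a WP or EC formulation with 0.5% additive in 600 L/ha water. Efficacy rated visually after about 3 weeks against untreated controls (0% = like control, 100% = plants dead).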
# Poa annua [6] = experiment: Post-emergence herbicidal efficacy at 320 g/ha, POAAN; conditions: rated visually after about 3 weeks vs untreated controls, 100% = plants have died
# Excerpt: as §2
# (§6) Seeds of mono- and dicotyledonous weed plants were placed in plastic pots in sandy loam soil (doubly sown with in each case one species of mono- or dicotyledonous weed plants per pot), covered with soil and cultivated in a greenhouse under controlled growth conditions. 2 to 3 weeks after sowing, the test plants were treated at the one-leaf stage. The compounds of the invention, formulated in the form of wettable powders (WP) or as emulsion concentrates (EC), were applied to the green parts of the plants as aqueous suspension or emulsion with addition of 0.5% additive at a water application rate equivalent to 600 litres per hectare. After the test plants had been kept in the greenhouse under optimum growth conditions for about 3 weeks, the activity of the preparations was rated visually in comparison to untreated controls.
# (§7) For example, 100% activity=the plants have died, 0% activity=like control plants.
# (§8) Tables A1 to A10 below show the effects of selected compounds of the general formula (I) according to Table 1 on various harmful plants and at an application rate corresponding to 320 g/ha, which were obtained by the trial procedure specified above.
# Echinochloa crus-galli [7] = experiment: Pre-emergence herbicide efficacy at 80 g/ha, ECHCG; conditions: scored visually after about 3 weeks vs untreated controls, 100% = plants have died
# Excerpt: as §2
# (§9) Seeds of monocotyledonous and dicotyledonous weed plants and crop plants were placed in plastic or organic planting pots and covered with soil. The compounds of the invention, formulated in the form of wettable powders (WP) or as emulsion concentrates (EC), were then applied to the surface of the covering soil as aqueous suspension or emulsion with addition of 0.5% additive at a water application rate equivalent to 600 l/ha. After the treatment, the pots were placed in a greenhouse and kept under good growth conditions for the test plants. After about 3 weeks, the efficacy of the preparations was scored visually in comparison with untreated controls as percentages. For example, 100% activity=the plants have died, 0% activity=like control plants.
# (§10) Tables D1 to D12 below show the effects of selected compounds of the general formula (I) according to Table 1 on various harmful plants and an application rate corresponding to 80 g/ha, which were obtained by the experimental procedure mentioned above.
# Veronica persica [8] = experiment: Post-emergence herbicidal efficacy at 320 g/ha, VERPE; conditions: rated visually after about 3 weeks vs untreated controls, 100% = plants have died
# How it was run: as §5
# Setaria viridis [9] = experiment: Pre-emergence herbicide efficacy at 80 g/ha, SETVI
# Excerpt: as §2, §9, §10
# Setaria viridis [10] = experiment: Post-emergence herbicidal efficacy at 320 g/ha, SETVI; conditions: rated visually after about 3 weeks vs untreated controls, 100% = plants have died
# Excerpt: as §2, §6, §7, §8
# Matricaria inodora [11] = experiment: Pre-emergence herbicide efficacy at 320 g/ha, MATIN; conditions: scored visually after about 3 weeks vs untreated controls, 100% = plants have died
# Excerpt: as §2
# (§11) Seeds of mono- and dicotyledonous weed plants were placed in plastic pots in sandy loam soil (doubly sown with one species each of mono- or dicotyledonous weed plants per pot) and covered with soil. The compounds of the invention, formulated in the form of wettable powders (WP) or as emulsion concentrates (EC), were then applied to the surface of the covering soil as aqueous suspension or emulsion with addition of 0.5% additive at a water application rate of 600 litres per hectare (converted). After the treatment, the pots were placed in a greenhouse and kept under good growth conditions for the test plants. After about 3 weeks, the efficacy of the preparations was scored visually in comparison with untreated controls as percentages.
# as §7
# (§12) Tables C1 to C12 below show the effects of selected compounds of the general formula (I) according to Table 1 on various harmful plants and at an application rate corresponding to 320 g/ha, which were obtained by the trial procedure specified above.
# Matricaria inodora [12] = experiment: Pre-emergence herbicide efficacy at 80 g/ha, MATIN; conditions: scored visually after about 3 weeks vs untreated controls, 100% = plants have died
# Excerpt: as §2, §9, §10
# Amaranthus retroflexus [13] = experiment: Post-emergence herbicidal efficacy at 320 g/ha, AMARE; conditions: rated visually after about 3 weeks vs untreated controls, 100% = plants have died
# How it was run: as §5
# Kochia scoparia [14] = experiment: Pre-emergence herbicide efficacy at 80 g/ha, KCHSC; conditions: scored visually after about 3 weeks vs untreated controls, 100% = plants have died
# Excerpt: as §2, §9, §10
# Polygonum convolvulus = experiment: Pre-emergence herbicide efficacy at 80 g/ha, POLCO; conditions: scored visually after about 3 weeks vs untreated controls, 100% = plants have died
# Excerpt: as §2, §9, §10
# Echinochloa crus-galli [15] = experiment: Pre-emergence herbicide efficacy at 320 g/ha, ECHCG; conditions: scored visually after about 3 weeks vs untreated controls, 100% = plants have died
# Excerpt: as §2, §11, §7, §12
# Setaria viridis [16] = experiment: Pre-emergence herbicide efficacy at 320 g/ha, SETVI; conditions: scored visually after about 3 weeks vs untreated controls, 100% = plants have died
# How it was run: as §1
# Abutilon theophrasti [17] = experiment: Pre-emergence herbicide efficacy at 320 g/ha, ABUTH; conditions: scored visually after about 3 weeks vs untreated controls, 100% = plants have died
# Excerpt: as §2, §11, §7, §12
# Viola tricolor [18] = experiment: Post-emergence herbicidal efficacy at 80 g/ha, VIOTR; conditions: rated visually after about 3 weeks vs untreated controls, 100% = plants have died
# Excerpt: as §2, §3, §4
# Amaranthus retroflexus [19] = experiment: Pre-emergence herbicide efficacy at 80 g/ha, AMARE; conditions: scored visually after about 3 weeks vs untreated controls, 100% = plants have died
# Excerpt: as §2, §9, §10
# Digitaria sanguinalis [20] = experiment: Pre-emergence herbicide efficacy at 80 g/ha, DIGSA; conditions: scored visually after about 3 weeks vs untreated controls, 100% = plants have died
# Excerpt: as §2, §9, §10
# Veronica persica [21] = experiment: Post-emergence herbicidal efficacy at 80 g/ha, VERPE; conditions: rated visually after about 3 weeks vs untreated controls, 100% = plants have died
# Excerpt: as §2, §3, §4
# Stellaria media [22] = experiment: Post-emergence herbicidal efficacy at 320 g/ha, STEME; conditions: rated visually after about 3 weeks vs untreated controls, 100% = plants have died
# How it was run: as §5
# Veronica persica [23] = experiment: Pre-emergence herbicide efficacy at 80 g/ha, VERPE
# Excerpt: as §2, §9, §10
# Veronica persica [24] = experiment: Pre-emergence herbicide efficacy at 320 g/ha, VERPE; conditions: scored visually after about 3 weeks vs untreated controls, 100% = plants have died
# How it was run: as §1
# Amaranthus retroflexus [25] = experiment: Pre-emergence herbicide efficacy at 320 g/ha, AMARE; conditions: scored visually after about 3 weeks vs untreated controls, 100% = plants have died
# How it was run: as §1
# Poa annua [26] = experiment: Pre-emergence herbicide efficacy at 320 g/ha, POAAN; conditions: scored visually after about 3 weeks vs untreated controls, 100% = plants have died
# Excerpt: as §2, §11, §7, §12
# Digitaria sanguinalis [27] = experiment: Post-emergence herbicidal efficacy at 320 g/ha, DIGSA; conditions: rated visually after about 3 weeks vs untreated controls, 100% = plants have died
# Excerpt: as §2, §6, §7, §8
# Digitaria sanguinalis [28] = experiment: Pre-emergence herbicide efficacy at 320 g/ha, DIGSA; conditions: scored visually after about 3 weeks vs untreated controls, 100% = plants have died
# How it was run: as §1
# Abutilon theophrasti [29] = experiment: Post-emergence herbicidal efficacy at 320 g/ha, ABUTH; conditions: rated visually after about 3 weeks vs untreated controls, 100% = plants have died
# How it was run: as §5
# Abutilon theophrasti [30] = experiment: Pre-emergence herbicide efficacy at 80 g/ha, ABUTH; conditions: scored visually after about 3 weeks vs untreated controls, 100% = plants have died
# Excerpt: as §2, §9, §10
# Echinochloa crus-galli [31] = experiment: Post-emergence herbicidal efficacy at 320 g/ha, ECHCG; conditions: rated visually after about 3 weeks vs untreated controls, 100% = plants have died
# Excerpt: as §2, §6, §7, §8
# Viola tricolor [32] = experiment: Pre-emergence herbicide efficacy at 80 g/ha, VIOTR
# Excerpt: as §2, §9, §10
smiles,measurement,setting,value
Cc1cnn(-c2c(C#N)cccc2Nc2ncc(Cl)cn2)c1 [Example 1-66],Pre-emergence efficacy at 320 g/ha against STEME in %,Stellaria media [1],100%
same,Post-emergence efficacy at 80 g/ha against KCHSC in %,Kochia scoparia [2],80%
same,Post-emergence efficacy at 80 g/ha against AMARE in %,Amaranthus retroflexus [3],100%
same,Pre-emergence efficacy at 320 g/ha against KCHSC in %,Kochia scoparia [4],100%
same,Post-emergence efficacy at 320 g/ha against KCHSC in %,Kochia scoparia [5],100%
same,Post-emergence efficacy at 320 g/ha against POAAN in %,Poa annua [6],100%
same,Pre-emergence efficacy at 80 g/ha against ECHCG in %,Echinochloa crus-galli [7],90%
same,Post-emergence efficacy at 320 g/ha against VERPE in %,Veronica persica [8],100%
same,Pre-emergence efficacy against SETVI,Setaria viridis [9],90%
same,Post-emergence efficacy at 320 g/ha against SETVI in %,Setaria viridis [10],90%
same,Pre-emergence efficacy at 320 g/ha against MATIN in %,Matricaria inodora [11],90%
same,Pre-emergence efficacy at 80 g/ha against MATIN in %,Matricaria inodora [12],100%
same,Post-emergence efficacy at 320 g/ha against AMARE in %,Amaranthus retroflexus [13],100%
same,Pre-emergence efficacy at 80 g/ha against KCHSC in %,Kochia scoparia [14],100%
same,Pre-emergence efficacy at 80 g/ha against POLCO in %,Polygonum convolvulus,80%
same,Pre-emergence efficacy at 320 g/ha against ECHCG in %,Echinochloa crus-galli [15],100%
same,Pre-emergence efficacy at 320 g/ha against SETVI in %,Setaria viridis [16],100%
same,Pre-emergence efficacy at 320 g/ha against ABUTH in %,Abutilon theophrasti [17],100%
same,Post-emergence efficacy at 80 g/ha against VIOTR in %,Viola tricolor [18],90%
same,Pre-emergence efficacy at 80 g/ha against AMARE in %,Amaranthus retroflexus [19],100%
same,Pre-emergence efficacy at 80 g/ha against DIGSA in %,Digitaria sanguinalis [20],100%
same,Post-emergence efficacy at 80 g/ha against VERPE in %,Veronica persica [21],90%
same,Post-emergence efficacy at 320 g/ha against STEME in %,Stellaria media [22],100%
same,Pre-emergence efficacy against VERPE,Veronica persica [23],100%
same,Pre-emergence efficacy at 320 g/ha against VERPE in %,Veronica persica [24],100%
same,Pre-emergence efficacy at 320 g/ha against AMARE in %,Amaranthus retroflexus [25],100%
same,Pre-emergence efficacy at 320 g/ha against POAAN in %,Poa annua [26],100%
same,Post-emergence efficacy at 320 g/ha against DIGSA in %,Digitaria sanguinalis [27],90%
same,Pre-emergence efficacy at 320 g/ha against DIGSA in %,Digitaria sanguinalis [28],100%
same,Post-emergence efficacy at 320 g/ha against ABUTH in %,Abutilon theophrasti [29],100%
same,Pre-emergence efficacy at 80 g/ha against ABUTH in %,Abutilon theophrasti [30],80%
same,Post-emergence efficacy at 320 g/ha against ECHCG in %,Echinochloa crus-galli [31],100%
same,Pre-emergence efficacy against VIOTR,Viola tricolor [32],100%
